These are literature values, as cited in patent US10166183B2, “Pharmaceutical formulations” (AUSPEX PHARMACEUTICALS, INC., priority 2014, dated 2019).

The conditions of the series: in human plasma; metabolites of orally administered tetrabenazine.

`COc1cc2c(cc1OC)[C@H]1C[C@H](O)[C@H](CC(C)C)CN1CC2` [β-HTBZ, beta-dihydrotetrabenazine]: the half-lives is 5 h.
As to alpha-dihydrotetrabenazine [α-HTBZ], the half-lives is 7 h.
